Assay results as given in patent US8168779B2, “Anhydrous crystalline β-maltose, its preparation and uses” (priority 2006, dated 2012).

Experiments:
[1] = mercury filling method; for Intrusion volume: initial pressure 15 kPa; for Median pore diameter / Mode pore diameter: control values originate from space between crystal particles, not pores
[2] = Deionized water-solidifying test (base for solidifying moisture-containing compositions); assay type: physicochemical; settings: 25° C.; for (Appearance) / Condition: after 20 hours from the dissolution; for Time of solidification completed / Time of solidification started: monitored for 2 hours
From the text: After completing the dissolution, each test solution was further stirred for four minutes and then the stirring was stopped. Successively, each test solution was left to stand and a solidification of the test solution by the crystallization of hydrous crystalline maltose was monitored macroscopically for two hours. In the cases of the solidified samples, the time of starting the crystallization and that of completing the solidification were checked. (However, the test solution dissolving 18.8 g of crystal was stopped stirring at three minutes after the dissolution because the crystallization of hydrous crystalline maltose was started immediately.) After monitoring macroscopically for two hours, each vessel containing any one of the sample solutions was closed and further left to stand for 18 hours. Then, the condition (appearance) of the test samples after 20 hours from the dissolution was monitored macroscopically and evaluated by the following three phases: (1) clear solution; (2) clouded solution; and (3) solidified. The samples prepared by using 10.0 g, 11.5 g, 13.3 g, or 18.8 g of the anhydrous crystalline α-maltose used in Example 2, as a substitute of the test samples, were treated by the same procedure as controls. The test was carried out in a room where a temperature was kept at 25° C. The results of each sample after 2 and 20 hours are shown in Table 5 and FIG. 13, and Table 6 and FIG. 14, respectively.

[3] = Hygroscopicity test (moisture content under controlled relative humidity); assay type: physicochemical; settings: 27° C.
Experimental: Moisture contents of the samples at respective periods were measured based on the change of weight from the start of the test. The moisture contents of the samples at the start of the test were measured by Karl Fischer's method.

[4] = 8.2 g dissolved in 10 g deionized water (45.0%)
[5] = 8.2 g dissolved in 10 g deionized water (calc. conc. 45.0%)
[6] = 10.0 g dissolved in 10 g deionized water (50.0%)
[7] = 10.0 g dissolved in 10 g deionized water (calc. conc. 50.0%)
[8] = 11.5 g dissolved in 10 g deionized water (53.5%)
[9] = 11.5 g dissolved in 10 g deionized water (calc. conc. 53.5%)
[10] = 13.3 g dissolved in 10 g deionized water (calc. conc. 57.0%)
[11] = 18.8 g dissolved in 10 g deionized water (calc. conc. 65.0%)

With `OC[C@H]1O[C@H](O[C@H]2[C@H](O)[C@@H](O)[C@H](O)O[C@@H]2CO)[C@H](O)[C@@H](O)[C@@H]1O` [Anhydrous crystalline β-maltose (Control 3)] the Intrusion volume [1] was “(No pore)”, the Median pore diameter [1] was 14.70 μm and the Mode pore diameter [1] was 25.70 μm.

Compound `OC[C@H]1O[C@H](O[C@H]2[C@H](O)[C@@H](O)[C@H](O)O[C@@H]2CO)[C@H](O)[C@@H](O)[C@@H]1O` [Anhydrous crystalline β-maltose converted by the ethanol tre] has an Intrusion volume [1] of 1.05 mL/g, a Median pore diameter [1] of 1.26 μm and a Mode pore diameter [1] of 1.44 μm. The “(Appearance)” value [2, 4] was “(Clear solution)”, the Condition [2, 4] was “Not solidified” and the “Time of solidification completed” value [2, 5] was “Not solidified”. The “Time of solidification started” value [2, 5] was “Not solidified”, the “(Appearance)” value [2, 6] was “(Clear solution)” and the Condition [2, 6] was “Not solidified”. For the same compound, the “Time of solidification completed” value [2, 7] was “Not solidified”, the “Time of solidification started” value [2, 7] was “Not solidified” and the “(Appearance)” value [2, 8] was “(Clouded solution)”. The Condition [2, 8] was “Not solidified”, the “Time of solidification completed” value [2, 9] was “Not solidified” and the “Time of solidification started” value [2, 9] was “Not solidified”. For the same compound, the Condition ([2]; 13.3 g dissolved in 10 g deionized water (57.0%)) was “Solidified”, the “Time of solidification completed” value [2, 10] was 8.0 min and the “Time of solidification started” value [2, 10] was 6.0 min. The Condition ([2]; 18.8 g dissolved in 10 g deionized water (65.0%)) was “Solidified”, the “Time of solidification completed” value [2, 11] was 3.5 min and the “Time of solidification started” value [2, 11] was 3.0 min.

In the case of `OCC1OC(OC2C(CO)OC(O)C(O)C2O)C(O)C(O)C1O` (stereo not drawn) [HC β-Mal (Control 1), Hydrous crystalline β-maltose], the “Moisture content of samples” value ([3]; RH 47% (lithium nitrate), 0 hour (start, Karl Fischer)) is reported as 5.24 %, w/w, the “Moisture content of samples” value ([3]; RH 47% (lithium nitrate), 2 hours) is reported as 5.23 %, w/w and the “Moisture content of samples” value ([3]; RH 47% (lithium nitrate), 4 hours) is reported as 5.23 %, w/w. The “Moisture content of samples” value ([3]; RH 47% (lithium nitrate), 24 hours) was 5.23 %, w/w, the “Moisture content of samples” value ([3]; RH 47% (lithium nitrate), 96 hours) was 5.26 %, w/w and the “Moisture content of samples” value ([3]; RH 47% (lithium nitrate), 192 hours) was 5.23 %, w/w. For the same compound, the “Moisture content of samples” value ([3]; RH 58% (sodium bromide), 0 hour (start, Karl Fischer)) was 5.24 %, w/w, the “Moisture content of samples” value ([3]; RH 58% (sodium bromide), 2 hours) was 5.22 %, w/w and the “Moisture content of samples” value ([3]; RH 58% (sodium bromide), 4 hours) was 5.25 %, w/w. For the same compound, the “Moisture content of samples” value ([3]; RH 58% (sodium bromide), 6 hours) was 5.26 %, w/w, the “Moisture content of samples” value ([3]; RH 58% (sodium bromide), 8 hours) was 5.25 %, w/w and the “Moisture content of samples” value ([3]; RH 58% (sodium bromide), 24 hours) was 5.25 %, w/w. The “Moisture content of samples” value ([3]; RH 58% (sodium bromide), 96 hours) was 5.28 %, w/w, the “Moisture content of samples” value ([3]; RH 58% (sodium bromide), 192 hours) was 5.26 %, w/w and the “Moisture content of samples” value ([3]; RH 75% (sodium chloride), 0 hour (start, Karl Fischer)) was 5.24 %, w/w. The “Moisture content of samples” value ([3]; RH 75% (sodium chloride), 2 hours) was 5.21 %, w/w, the “Moisture content of samples” value ([3]; RH 75% (sodium chloride), 4 hours) was 5.25 %, w/w and the “Moisture content of samples” value ([3]; RH 75% (sodium chloride), 6 hours) was 5.25 %, w/w. The “Moisture content of samples” value ([3]; RH 75% (sodium chloride), 8 hours) was 5.25 %, w/w, the “Moisture content of samples” value ([3]; RH 75% (sodium chloride), 24 hours) was 5.25 %, w/w and the “Moisture content of samples” value ([3]; RH 75% (sodium chloride), 96 hours) was 5.29 %, w/w. For the same compound, the “Moisture content of samples” value ([3]; RH 75% (sodium chloride), 192 hours) was 5.23 %, w/w, the “Moisture content of samples” value ([3]; RH 90% (barium chloride), 0 hour (start, Karl Fischer)) was 5.24 %, w/w and the “Moisture content of samples” value ([3]; RH 90% (barium chloride), 2 hours) was 5.26 %, w/w. The “Moisture content of samples” value ([3]; RH 90% (barium chloride), 4 hours) was 5.27 %, w/w, the “Moisture content of samples” value ([3]; RH 90% (barium chloride), 6 hours) was 5.26 %, w/w and the “Moisture content of samples” value ([3]; RH 90% (barium chloride), 8 hours) was 5.26 %, w/w. For the same compound, the “Moisture content of samples” value ([3]; RH 90% (barium chloride), 24 hours) was 5.24 %, w/w, the “Moisture content of samples” value ([3]; RH 90% (barium chloride), 96 hours) was 5.61 %, w/w and the “Moisture content of samples” value ([3]; RH 90% (barium chloride), 192 hours) was 5.36 %, w/w.
